For data set [1], the system named is tumour cells. To be noted: for Cytotoxicity E. coli: change of drug cytotoxicity on tumour cells after co-incubation with E. coli, bacteria removed by filtration, MTS, Up/Down/NC.
Data set [2] relates to Subcutaneous flank CT26 tumours. Nature of the data set: murine model of intratumoural bacterial effects on chemotherapy.
The subject of another data set is 4T1 Luc cells. Nature of the data set: tumour cell survival assay, drug co-incubated with E. coli, supernatant applied to 4T1 Luc cells. To be noted: gemcitabine 10 µM co-incubated with E. coli at different cfu/ml, Figure 1b. The class given is cell-based, mouse.
In data set [3] the test system is tumour cells. Nature of the data set: in vitro cytotoxicity screen of drugs co-incubated with L. welshimeri (tumour cell survival assay, MTS). The note with it: change of drug cytotoxicity on tumour cells after co-incubation with L. welshimeri, bacteria removed by filtration, Up/Down/NC.

In the case of `O=C1c2c(O)ccc(O)c2C(=O)c2c(NCCNCCO)ccc(NCCNCCO)c21` [Mitoxantrone], in the data set on tumour cells [1], the “Cytotoxicity E. coli” value is given as “Down”.
The same measure, in the same setting: the same measure for `CC(=O)[C@]1(O)Cc2c(O)c3c(c(O)c2[C@@H](O[C@H]2C[C@H](N)[C@H](O)[C@H](C)O2)C1)C(=O)c1ccccc1C3=O` [Idarubicin]: “Down”.
Consider `Nc1ccn([C@@H]2O[C@H](CO)[C@@H](O)C2(F)F)c(=O)n1` [Gemcitabine], for which the “Cytotoxicity E. coli” value in the data set with tumour cells [1] is “decreasing and Down”. The “cytotoxicity after incubation with heat-inactivated lysate (or intact bacteria)” value in the data set with tumour cells [1] (gemcitabine 10 µM, E. coli heat-inactivated at 95 °C, Figure 2) is “no reduction in cytotoxicity”. In data set [2] (gemcitabine + bacteria group compared with gemcitabine alone group, various time points, gemcitabine 60 mg/kg i.p., E. coli i.t.), the tumour volume entry is listed as “Significantly increased”. Further, the “median survival post Day 0” value stood at 17 days in data set [2] (gemcitabine + bacteria group: E. coli i.t., gemcitabine 60 mg/kg i.p.) and 28 days in data set [2] (gemcitabine alone group: PBS i.t., gemcitabine 60 mg/kg i.p.). In addition, the “efficacy (tumour cell survival)” value in the data set on 4T1 Luc cells is “decreased”.
On to `Nc1nc(Cl)nc2c1ncn2[C@H]1C[C@H](O)[C@@H](CO)O1` [Cladribine], for which the “Cytotoxicity E. coli” value with tumour cells [1] was “Down”. The “Cytotoxicity L. welshimeri” value with tumour cells [3] is “Down”.
Consider `COc1cccc2c1C(=O)c1c(O)c3c(c(O)c1C2=O)C[C@@](O)(C(C)=O)C[C@@H]3O[C@H]1C[C@H](N)[C@H](O)[C@H](C)O1` [Daunorubicin], for which the “Cytotoxicity E. coli” value in the data set with tumour cells [1] is listed as “Down”. The “Cytotoxicity L. welshimeri” value with tumour cells [3] is “Down”.
As to `COc1cc([C@@H]2c3cc4c(cc3[C@@H](O[C@@H]3O[C@@H]5CO[C@@H](C)O[C@H]5[C@H](O)[C@H]3O)[C@H]3COC(=O)[C@H]23)OCO4)cc(OC)c1OP(=O)(O)O` [Etoposide phosphate], in the data set on tumour cells [1], the “Cytotoxicity E. coli” value was “decreasing and Down”.
As to `Nc1nc(F)nc2c1ncn2[C@@H]1O[C@H](COP(=O)(O)O)[C@@H](O)[C@@H]1O` [Fludarabine de phosphate], the “Cytotoxicity E. coli” value in the data set with tumour cells [1] is “Up”. The “Cytotoxicity L. welshimeri” value in the data set with tumour cells [3] is recorded as “Up”.
Take `Nc1ncnc2c1ncn2[C@@H]1O[C@H](CO)[C@@H](O)[C@@H]1O` [Vidarabine]: the “Cytotoxicity E. coli” value in the data set with tumour cells [1] was “decreasing and Down”.
For the molecule `CC1(C)CCC2=C(O1)c1ccccc1C(=O)C2=O` [B-Lapachone], in the data set with tumour cells [1], the “Cytotoxicity E. coli” value is “Down”.
On the same count and under the same terms, the same measure for `Nc1nc(=O)[nH]cc1F` [5-fluorocytosine]: “Up”; for `COc1cccc2c1C(=O)c1c(O)c3c(c(O)c1C2=O)C[C@@](O)(C(=O)CO)C[C@@H]3O[C@H]1C[C@H](N)[C@H](O)[C@H](C)O1` [Doxorubicin]: “Down”.
In the case of `NC(=O)c1cc(N2CC2)c([N+](=O)[O-])cc1[N+](=O)[O-]` [CB1954], the “Cytotoxicity E. coli” value with tumour cells [1] is on record as “Up”. Moreover, the “median survival post Day 0” value was determined as 26 days in data set [2] (CB1954 + bacteria group: E. coli i.t., CB1954 20 mg/kg i.p.) and 8 days in data set [2] (CB1954 alone group: PBS i.t., CB1954 20 mg/kg i.p.). Also, the “Cytotoxicity L. welshimeri” value with tumour cells [3] is “Up”.
Turning to `O=c1[nH]c(=O)n(C2CCCO2)cc1F` (centres unmarked) [Tegafur], in the data set with tumour cells [1], the “Cytotoxicity E. coli” value was “increasing and Up”.
On the same count and under the same terms, the entry for `OC[C@H]1O[C@@H](n2cnc3c(S)ncnc32)C[C@@H]1O` [6-Mercaptopurine-2’-deoxyriboside] is “Up”; for `CC1=CC(=O)c2ccccc2C1=O` [Menadione] it is “Down”.

These data come from patent EP2998000A1, “COMBINATION THERAPY FOR CANCER” (priority 2014, dated 2016).
